These results are taken from paper PMC10535842, “Novel Thiazole-Based SIRT2 Inhibitors Discovered via Molecular Modelling Studies and Enzymatic Assays” (Pharmaceuticals, 2023).

For assay [1], the target named is T1, recombinant SIRT2 (Homo sapiens, UniProt Q8IXJ6).
T1 sequence (Q8IXJ6 1-389): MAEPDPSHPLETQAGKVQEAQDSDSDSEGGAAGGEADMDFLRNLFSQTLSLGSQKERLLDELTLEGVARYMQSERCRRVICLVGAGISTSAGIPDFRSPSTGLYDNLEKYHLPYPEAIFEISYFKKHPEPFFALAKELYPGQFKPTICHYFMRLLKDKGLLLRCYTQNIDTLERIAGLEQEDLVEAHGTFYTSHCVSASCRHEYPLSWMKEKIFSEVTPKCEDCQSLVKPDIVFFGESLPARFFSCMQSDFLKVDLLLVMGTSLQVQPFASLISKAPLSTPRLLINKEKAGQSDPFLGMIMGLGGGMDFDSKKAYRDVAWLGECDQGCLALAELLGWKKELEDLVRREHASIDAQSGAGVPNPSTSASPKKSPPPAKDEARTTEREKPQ
In words: SIRT2 deacetylase activity, recombinant SIRT2 incubated with acetylated peptide H3K9Ac and NAD+. It is filed as biochemical. To be noted: recombinant protein. As to the method: The effect of the in silico screened compounds on the SIRT2 deacetylase activity was evaluated thanks to the incubation of recombinant SIRT2 with an acetylated peptide (H3K9Ac, a peptide acetylated on Lys 9) and NAD^+.

The target in assay [2] is T2, recombinant human HSP70 (Homo sapiens, UniProt P0DMV8).
T2 construct: made in house; host or cells: E. coli BL21 (DE3)
T2 sequence (P0DMV8 whole entry): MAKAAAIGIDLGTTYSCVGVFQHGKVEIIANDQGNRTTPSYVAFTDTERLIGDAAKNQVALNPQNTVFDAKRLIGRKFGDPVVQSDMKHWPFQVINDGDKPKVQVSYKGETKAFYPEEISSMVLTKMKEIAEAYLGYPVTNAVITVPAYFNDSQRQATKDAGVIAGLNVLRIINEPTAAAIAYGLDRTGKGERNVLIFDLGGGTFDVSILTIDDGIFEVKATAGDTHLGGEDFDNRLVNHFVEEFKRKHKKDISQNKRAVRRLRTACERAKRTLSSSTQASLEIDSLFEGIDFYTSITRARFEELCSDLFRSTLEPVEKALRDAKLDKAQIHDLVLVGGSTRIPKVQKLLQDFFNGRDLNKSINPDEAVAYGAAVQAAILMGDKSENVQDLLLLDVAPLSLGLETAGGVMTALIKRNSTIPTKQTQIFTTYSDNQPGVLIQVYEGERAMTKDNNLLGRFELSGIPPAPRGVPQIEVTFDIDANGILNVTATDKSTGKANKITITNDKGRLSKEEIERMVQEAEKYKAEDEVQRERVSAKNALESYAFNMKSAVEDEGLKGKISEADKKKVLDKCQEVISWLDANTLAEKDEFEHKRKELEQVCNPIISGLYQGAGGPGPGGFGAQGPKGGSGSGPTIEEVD
The experiment in a line: HSP70 ATPase catalytic activity, Malachite green assay. The assay is classed as biochemical. To be noted: 300 μM final concentration; read-out: percentage of inhibition of HSP70 ATPase activity. The method, then:
The impact of selected molecules on the ATPase catalytic activity of an in-house produced recombinant human HSP70 protein was determined using the Malachite green assay, incubating the recombinant protein with ATP in the presence or absence of different compounds (300 μM final concentration). The percentage of inhibition exerted by the selected compounds on the ATPase activity was as follow: 1a, 49 ± 2%; 2a, 40 ± 1%; 3a, 44 ± 4%; 4a, 20 ± 1%; 5a, 19 ± 1%; 6a, 37 ± 1%; 7a, 47 ± 1%.
The recombinant human Hsp70 protein was produced in BL21 (DE3) E. coli transformed with the pET-6xHis/hHSP70 plasmid containing the coding sequence for human HSP70 (hHSPA1A gene, NM_005345.6; purchased from Vector Builder, Vector ID VB210930). This vector allowed for producing an N-terminal 6xHis tag fusion HSP70 protein.
BL21 cells containing the vector were initially grown in Luria−Bertani medium at 37 °C (Merck, Milan, Italy) with 200 μg/mL ampicillin until the culture reached an OD600 of 0.5. The 6xHis/hHSP70 fusion protein was expressed by adding isopropyl-β-d-thiogalactopyranoside (final concentration of 0.2 mM) and incubating the bacteria culture at 37 °C for 2 h. The cells were harvested by centrifugation and then lysed by sonication in 20 mM Tris-HCl, 250 mM KCl, and 10 mM MgCl2 pH 7.4; after the addition of Triton X-100 to a final concentration of 1% and incubation for 30 min at 4 °C, the lysates were centrifugated at 10,000× g for 15 min. The HSP70 protein was purified by affinity chromatography using His GraviTrap TALON columns (Euroclone, Milan, Italy). Briefly, after loading the lysate, the resin was washed twice with 20 mM Tris-HCl, 250 mM KCl, and 10 mM MgCl2 pH 7.4 and twice with the same buffer containing 10 mM of imidazole. The elution of the recombinant protein was obtained with 150 mM imidazole, pH 7.4. Imidazole was removed from the recombinant protein through overnight dialysis using a dialysis tubing membrane (Merck KGaA, Frankfurter Strasse 250 Darmstadt, Germany) and the protein was concentrated using a Centricon (Merck Millipore, 11 Avenida Norte Bis No. 513, San Salvador, El Salvador). The protein concentrations were determined using the Bradford assay (Bio-Rad Laboratories, Inc. Italy, Segrate) and the protein purity was monitored using SDS-PAGE.
The ATPase catalytic activity of recombinant human HSP70 was measured with a colorimetric assay using the malachite green reagent. Briefly, 6 µM of HSP70 protein was incubated for 30 min at 37 °C with 5 mM ATP in 20 mM Tris-HCl, 250 mM KCl, 10 mM MgCl2, and 0.02%TritonX-100, pH 7.4. The released phosphates were quantified by adding the malachite green reagent to an aliquot of this incubation and the absorbance was recorded at 620 nm using a Clariostar plate reader. The effects of thiazoles-based molecules on the ATPase catalytic activity were measured by adding (or not) the different molecules to the incubation (at 300 µM final concentration). To correct for non-enzymatic hydrolysis of ATP and for a specific absorbance of molecules, the absorbance signal of identically treated samples lacking the HSP70 protein was subtracted.

Assay [3] concerns SIRT2. Particulars: substrate ZMAL; read-out: SIRT2 IC50 (series A, compounds 1-26); cited from earlier work.
Assay [4] has as its system SIRT2. Particulars: substrate RHKK(Ac)-AMC; read-out: SIRT2 IC50 (series B, compounds 27-111); cited from earlier work.
The test system of assay [5] is SIRT2. Particulars: HPLC assay, H3K9Ac; read-out: SIRT2 IC50 (series C, compounds 112-116); cited from earlier work.

“And” between values parts separate entries of the source, which are not always exact repeats. Identical values can stand only once. Like-named read-outs stand apart in the source and are kept apart here.

What is called inhibition is the share of the control response that was lost under treatment. By IC50 is commonly meant the concentration at which inhibition is half-maximal. For the compound `CCc1ccc(Nc2nc(-c3ccc(Cl)cc3)cs2)cc1SC` [Compound 2a], in assay [1], the “% Inhibition SIRT2 (at 150 μM)” value was 100 ± 9%, the inhibition at 150 µM was over 90% and the IC50 turned out to be 17.3 ± 2 µM. In addition, the inhibition at 300 µM in assay [2] is 40 ± 1%. `Cc1cccc(Cc2cnc(NC(=O)CSc3nc(C)cc(C)n3)s2)c1` [Compound 3]: the IC50 in assay [3] is 1.64 µM. In the case of `CSc1cccc(Nc2nc(-c3cccc(Cl)c3)cs2)c1` [Compound 3a], in assay [1], the inhibition at 150 µM came out at 60 ± 8%. The inhibition at 300 µM in assay [2] was determined as 44 ± 4%. For the compound `Cc1cc(C)nc(SCC(=O)Nc2ncc(Cc3ccc(Cl)cc3)s2)n1` [Compound 4], the IC50 in assay [3] was 3.4 µM.

As to `CSc1cccc(Nc2nc(-c3ccc4c(c3)CC(=O)N4)cs2)c1` [Compound 4a], the inhibition at 150 µM in assay [1] was found to be 60 ± 5%. In assay [2], the inhibition at 300 µM is 20 ± 1%.

As to `CCOc1cccc(Cc2cnc(NC(=O)CSc3nc(C)cc(C)n3)s2)c1` [Compound 5], the IC50 in assay [3] is 1.33 µM. Turning to `CSc1cccc(Nc2nc(-c3ccc4[nH]c(=O)sc4c3)cs2)c1` [Compound 5a], in assay [1], the inhibition at 150 µM was 76 ± 9%. Also, the inhibition at 300 µM in assay [2] amounted to 19 ± 1%. As for `Cc1cc(C)nc(SCC(=O)Nc2ncc(Cc3ccc(-c4ccccc4)cc3)s2)n1` [Compound 6], the 50% inhibitory concentration (IC50) in assay [3] is 164 µM and > 167 µM.

Consider `O=C1Cc2cc(-c3csc(Nc4cccc(SC(F)(F)F)c4)n3)ccc2N1` [Compound 6a], for which, in assay [1], the “% Inhibition SIRT2 (at 150 μM)” value worked out at 92 ± 7%, the inhibition at 150 µM is over 90% and the IC50 worked out at 27.3 ± 4.7 µM. Further, the inhibition at 300 µM in assay [2] turned out to be 37 ± 1%. Turning to `O=C(CSc1cccc(O)c1)Nc1ncc(Cc2cccc3ccccc23)s1` [Compound 7], in assay [3], the IC50 was 143 µM. Consider `CCn1c(=O)/c(=C2\Sc3ccccc3N2C)s/c1=C\c1ccccn1` [Compound 7a, YM-08], for which, in assay [1], the “% Inhibition SIRT2 (at 150 μM)” value was 93 ± 9%, the inhibition at 150 µM is over 90% and the IC50 amounted to 19.9 ± 2.1 µM. For the same compound, in assay [2], the inhibition at 300 µM was 47 ± 1%. Regarding `Cc1cc(C)cc(SCC(=O)Nc2ncc(Cc3cccc4ccccc34)s2)c1` [Compound 8], in assay [3], the IC50 was 207 µM and > 167 µM.

Turning to `Cc1cc(C)nc(SCC(=O)Nc2ncc(C(=O)Nc3cccc4ccccc34)s2)n1` [Compound 9], the IC50 in assay [3] was 33 µM. Consider `Cc1cc(C)nc(SCC(=O)Nc2ncc(Cc3cccc4ccccc34)s2)n1` [Compound 10, SirReal2], for which the inhibition at 150 µM in assay [1] worked out at 100 ± 5%. For `Cc1cc(C)nc(SC(C)C(=O)Nc2ncc(Cc3cccc4ccccc34)s2)n1` (centres unmarked) [Compound 12], in assay [3], the IC50 is 9.77 µM. For `Cc1cc(C)nc(SC(C)C(=O)Nc2ncc(Cc3cccc4ccccc34)s2)n1` (centres unmarked) [Compound 13], the IC50 in assay [3] was 0.26 µM. For `Cc1cc(C)nc(SCC(=O)Nc2ncc(Cc3c(C)ccc4ccccc34)s2)n1` [Compound 14], in assay [3], the IC50 is 0.31 µM. For `Cc1cc(C)nc(SCC(=O)Nc2ncc(Cc3cccc4ccc(Br)cc34)s2)n1` [Compound 15], the IC50 in assay [3] was 0.21 µM. Consider `Cc1cc(C)nc(SCC(=O)Nc2ncc(Cc3cccc4cc(Cl)ccc34)s2)n1` [Compound 16], for which the IC50 in assay [3] is 0.48 µM. For `O=C(CSc1ncccn1)Nc1ncc(Cc2cccc3ccccc23)s1` [Compound 17], the IC50 in assay [3] was 2.34 µM and 2.34 to 16.8 µM. For `CCc1cc(CC)nc(SCC(=O)Nc2ncc(Cc3cccc4ccccc34)s2)n1` [Compound 18], the IC50 in assay [3] is 45.6 µM.

Turning to `Cc1nc(SCC(=O)Nc2ncc(Cc3cccc4ccccc34)s2)nc(C)c1C` [Compound 19], in assay [3], the IC50 is 15 µM. Take `CCCc1cc(O)nc(SCC(=O)Nc2ncc(Cc3cccc4ccccc34)s2)n1` [Compound 21]: the IC50 in assay [3] was 127 µM.

With `Cc1cc(C)nc(SCC(=O)Nc2nnc(Cc3ccc(Cl)cc3)s2)n1` [Compound 23], the IC50 in assay [3] is 30.9 µM.

Consider `Cc1cc(C)nc(SCC(=O)Nc2nnc(Cc3ccc(Br)cc3)s2)n1` [Compound 24], for which, in assay [3], the IC50 is 168 µM.

As to `Cc1cc(C)nc(SCC(=O)Nc2nnc(Cc3cccc4ccccc34)s2)n1` [Compound 25], the IC50 in assay [3] was 1.89 µM.

Regarding `CCOc1ccc2nc(NC(=O)CSc3nc(C)cc(C)n3)sc2c1` [Compound 26], in assay [3], the IC50 is 207 µM and > 167 µM.

For the compound `O=c1c2c3c(sc2ncn1Cc1cccc(-c2ccccc2)c1)CC(NC1CCOCC1)CC3` (centres unmarked) [Compound 102], the IC50 in assay [4] is 1.74 µM. With `O=c1c2c3c(sc2ncn1Cc1cccc(-c2ccccc2)c1)CC(NCCN1CCOCC1)CC3` (centres unmarked) [Compound 103], in assay [4], the IC50 is 3.14 µM. Turning to `O=c1c2c3c(sc2ncn1Cc1cccc(-c2ccccc2)c1)CC(NCCN1CCCC1)CC3` (centres unmarked) [Compound 104], in assay [4], the IC50 was 3.78 µM.

Regarding `O=c1c2c3c(sc2ncn1Cc1cccc2cccnc12)CC(NC1CCc2ccccc21)CC3` (centres unmarked) [Compound 105], the IC50 in assay [4] is 3.09 µM.

Take `COc1ccccc1Cn1cnc2sc3c(c2c1=O)CCC(NC1CCc2ccccc21)C3` (centres unmarked) [Compound 106]: in assay [4], the IC50 is 16.3 µM. On to `O=c1c2c3c(sc2ncn1Cc1cccc2cccnc12)CC(NC1CCCc2ccccc21)CC3` (centres unmarked) [Compound 107], for which the IC50 in assay [4] was 5.49 µM. Turning to `COc1ccc(CNCCc2sc3ncn(Cc4c(OC)ccc5ccccc45)c(=O)c3c2C)cc1` [Compound 108], the concentration for half-maximal inhibition (IC50) in assay [4] was 3.36 µM. In the case of `COc1ccc2ccccc2c1Cn1cnc2sc(CCNCc3cccnc3)c(C)c2c1=O` [Compound 109], the IC50 in assay [4] was 2.15 µM. Consider `COc1ccc2ccccc2c1Cn1cnc2sc(CCNCc3ccncc3)c(C)c2c1=O` [Compound 110], for which, in assay [4], the half-inhibitory concentration (IC50) was 2.93 µM. For the compound `COc1ccc2ccccc2c1Cn1cnc2sc(CCNC3CCOCC3)c(C)c2c1=O` [Compound 111], the IC50 in assay [4] is 8.15 µM. Take `O=C(On1nnc2ccccc21)c1cc[nH]c1` [Compound 112]: the IC50 in assay [5] is 56.6 µM. In the case of `O=C(On1nnc2ccccc21)c1ccc[nH]1` [Compound 113], in assay [5], the IC50 was 42.7 µM. For `Cc1ccc2[nH]cc(C(=O)On3nnc4ccccc43)c2c1` [Compound 115], the IC50 in assay [5] was 74 µM.

Turning to `O=C(On1nnc2ncccc21)c1c[nH]c2ccc(Br)cc12` [Compound 116], the 50% inhibitory concentration (IC50) in assay [5] is 77.1 µM.
